The results in this text go back to ChEMBL document CHEMBL3045049, “Synthesis and antiviral activity of new 3-methyl-1,5-diphenyl-1H-pyrazole derivatives” (Med Chem Res, 2012).

One data set relates to Human alphaherpesvirus 1. Briefly: Antiviral activity against Human herpesvirus 1 infected African green monkey Vero cells after 66 hr by viral plaque reduction assay. The data set is classed as functional. More on the design: concentration or dose not given beside the values. For orientation: Plaque reduction counts the foci of infection that form in a cell layer.
The subject of a further data set is Vero. Nature of the data set: Cytotoxicity against Chlorocebus aethiops (African green monkey) Vero cells after 24 hr. The class given is cell-based. The settings on record: chlorocebus sabaeus.

The structures appear in SMILES notation. The source made the active and inactive calls. No cut-off for these calls is given here.

The molecule `Cc1nn(-c2ccccc2)c(-c2ccccc2)c1-c1cc(-c2ccc(Br)cc2)[nH]c(=O)c1C#N` showed an Activity in the data set on Human alphaherpesvirus 1 of 52%. Still for that read-out and setting: the value for `Cc1ccc(C2=NNC(c3c(C)nn(-c4ccccc4)c3-c3ccccc3)C2)cc1` (centres undefined) was 22%; that for `COc1ccc(C2=NNC(c3c(C)nn(-c4ccccc4)c3-c3ccccc3)C2)cc1` (centres undefined) was 22%; that for `COc1ccc(OC)c(C(=O)/C=C/c2c(C)nn(-c3ccccc3)c2-c2ccccc2)c1` was 17%.

Regarding `Cc1nn(-c2ccccc2)c(-c2ccccc2)c1-c1cc(-c2ccc(Br)cc2)nc(N)c1C#N`, the Activity in the data set on Human alphaherpesvirus 1 is given as 51%. Molecule `Nc1nc2c(ncn2COCCO)c(=O)[nH]1` [ACYCLOVIR] came in with an Activity in the data set on Human alphaherpesvirus 1 of 100%. The same measure, in the same setting: then `CSc1cccc(Nc2nc(-c3ccc(C)cc3)cc(-c3c(C)nn(-c4ccccc4)c3-c3ccccc3)n2)c1`, with 52%.

Consider `COc1ccc(C2=NN(c3ccccc3)C(c3c(C)nn(-c4ccccc4)c3-c3ccccc3)C2)cc1` (centres undefined), for which the Activity result in the data set with Vero is reported as “Toxic”. The result with Human alphaherpesvirus 1 was inactive.

Consider `COc1ccc(OC)c(C2=NNC(c3c(C)nn(-c4ccccc4)c3-c3ccccc3)C2)c1` (centres undefined), for which the Activity in the data set on Human alphaherpesvirus 1 turned out to be 22%.

As for `Cc1ccc(C2=NOC(c3c(C)nn(-c4ccccc4)c3-c3ccccc3)C2)cc1` (centres undefined), the Activity with Human alphaherpesvirus 1 is 53%. For the molecule `COc1ccc(OC)c(C2=NN(c3ccccc3)C(c3c(C)nn(-c4ccccc4)c3-c3ccccc3)C2)c1` (centres undefined), the Activity result in the data set on Vero is recorded as “Toxic”. In the data set on Human alphaherpesvirus 1, the outcome was inactive. As to `Cc1nn(-c2ccccc2)c(-c2ccccc2)c1C1CC(c2ccc(Br)cc2)=NN1c1ccccc1` (centres undefined), the Activity entry in the data set on Vero was “Toxic”. Further, the result with Human alphaherpesvirus 1 was inactive. In turn, `Cc1ccc(C(=O)/C=C/c2c(C)nn(-c3ccccc3)c2-c2ccccc2)cc1` returned an Activity in the data set with Human alphaherpesvirus 1 of 10%. In turn, `Cc1nn(-c2ccccc2)c(-c2ccccc2)c1-c1cc(-c2ccc(Br)cc2)nc(N2C(=O)c3ccccc3C2=O)c1C#N` had an Activity in the data set on Human alphaherpesvirus 1 of 22%. The same measure, in the same setting: the value for `Cc1nn(-c2ccccc2)c(-c2ccccc2)c1C1CC(c2ccc(N)cc2)=NO1` (centres undefined) was 10%. With `Cc1ccc(C2=NN(c3ccccc3)C(c3c(C)nn(-c4ccccc4)c3-c3ccccc3)C2)cc1` (centres undefined), in the data set on Vero, the Activity entry is listed as “Toxic”. The result in the data set with Human alphaherpesvirus 1 was inactive. On to `Cc1nn(-c2ccccc2)c(-c2ccccc2)c1C1CC(c2cccc(N)c2)=NN1` (centres undefined), for which, in the data set on Human alphaherpesvirus 1, the Activity amounted to 15%. The same measure, in the same setting: then `Cc1nn(-c2ccccc2)c(-c2ccccc2)c1/C=C/C(=O)c1cccc(N)c1`, with 10%; and `Cc1nn(-c2ccccc2)c(-c2ccccc2)c1-c1cc(-c2ccc(Br)cc2)nc2nc(/C=C/C(=O)O)[nH]c(=O)c12`, with 10%. Consider `Cc1nn(-c2ccccc2)c(-c2ccccc2)c1C1CC(c2ccc(N)cc2)=NN1c1ccccc1` (centres undefined), for which the Activity result with Vero is “Toxic”. In addition, the result in the data set with Human alphaherpesvirus 1 was inactive. In turn, `Cc1nn(-c2ccccc2)c(-c2ccccc2)c1C1CC(c2cccc(N)c2)=NN1c1ccccc1` (centres undefined) had an Activity in the data set on Human alphaherpesvirus 1 of 11%. On to `COc1ccc(C(=O)/C=C/c2c(C)nn(-c3ccccc3)c2-c2ccccc2)cc1`, for which, in the data set on Vero, the Activity result is recorded as “Toxic”. The outcome in the data set with Human alphaherpesvirus 1 was inactive.

Consider `Cc1nn(-c2ccccc2)c(-c2ccccc2)c1C1CC(c2cccc(N)c2)=NO1` (centres undefined), for which the Activity in the data set with Human alphaherpesvirus 1 is recorded as 22%. For the molecule `Cc1nn(-c2ccccc2)c(-c2ccccc2)c1/C=C/C(=O)c1ccc(N)cc1`, the Activity entry with Vero was “Toxic”. In the data set with Human alphaherpesvirus 1, the result was inactive. `Cc1nn(-c2ccccc2)c(-c2ccccc2)c1/C=C/C(=O)c1ccc(Br)cc1`: the Activity in the data set with Human alphaherpesvirus 1 worked out at 22%. In the case of `Cc1nn(-c2ccccc2)c(-c2ccccc2)c1C1CC(c2ccc(N)cc2)=NN1` (centres undefined), the Activity with Human alphaherpesvirus 1 was determined as 10%. On to `COc1ccc(O)c(C2=NOC(c3c(C)nn(-c4ccccc4)c3-c3ccccc3)C2)c1` (centres undefined), for which the Activity result in the data set with Vero is reported as “Toxic”. Besides, in the data set on Human alphaherpesvirus 1, the result was inactive. Turning to `COc1ccc(C2=NOC(c3c(C)nn(-c4ccccc4)c3-c3ccccc3)C2)cc1` (centres undefined), the Activity result in the data set with Vero is recorded as “Toxic”. In addition, the result in the data set on Human alphaherpesvirus 1 was inactive.

Take `Cc1nn(-c2ccccc2)c(-c2ccccc2)c1C1CC(c2ccc(Br)cc2)=NO1` (centres undefined): the Activity in the data set on Human alphaherpesvirus 1 amounted to 10%. With `Cc1nn(-c2ccccc2)c(-c2ccccc2)c1C1CC(c2ccc(Br)cc2)=NN1` (centres undefined), in the data set on Human alphaherpesvirus 1, the Activity is on record as 18%.
